# Test results from patent US8637683B2, “Macrocyclic lactone derivatives for the treatment of cancer” (Piramal Enterprises Limited, priority 2009, dated 2014).
# “And” between values parts separate entries of the source, which are not always exact repeats. Equal entries are not always repeated. Where two headings read alike, the source gives them in different places.
# How the values were obtained:
# [1] = tested on: BXF 1218L; experiment: Monolayer assay (modified propidium iodide), BXF 1218L; assay type: cell-based, human; conditions: Bladder, 4 days of treatment
# Excerpt: (§1) Oncotest GmbH, Germany's proprietary tumor cell line panel comprises 40 cell lines. These cell lines were derived from 15 different tumor histotypes, each represented by 1 to 6 different cell lines. Cell lines were established from cancer of the bladder (3), colon (4), head and neck (1), lung (6), breast (3), pancreas (3), prostate (4), ovary (2), kidney (3), liver (1), stomach (1) and the uteri body (1), as well as from melanoma (3), sarcoma (2) and pleuramesothelioma (3). Out of these 40 cell lines, 24 cell lines were established at Oncotest, from patient-derived tumor xenografts. […]
# (§2) Stock solutions of the test compounds (330 μg/mL in DMSO) were prepared and stored in small aliquots (200 μL) at −20° C. […] Each concentration was evaluated in triplicate. […]
# (§3) Cells were plated in 96-well flat-bottom microtiter plates at a cell density of 4,000 to 10,000 cells/well. […] To measure the viable cell number, the remaining adherent cells were killed and permeabilized by repeated freezing and thawing and PI fluorescence was measured using the Cytofluor 4000 microplate reader (excitation λ=530 nm, emission λ=620 nm), which was a measure for the number of cells which survived treatment. […] IC-values were calculated based on the principle of linear two-point curve fit. […]
# [2] = tested on: HT 29; experiment: Monolayer assay (modified propidium iodide), HT 29; assay type: cell-based, human; conditions: HT 29, Colon, 4 days of treatment
# Excerpt: as §1, §2, §3
# [3] = tested on: RKO; experiment: Monolayer assay (modified propidium iodide), RKO; assay type: cell-based, human; conditions: Colon, 4 days of treatment
# Excerpt: as §1, §2, §3
# [4] = tested on: LXF 289L; experiment: Monolayer assay (modified propidium iodide), LXF 289L; assay type: cell-based, human; conditions: Lung, 4 days of treatment
# Excerpt: as §1, §2, §3
# [5] = tested on: LXF 629L; experiment: Monolayer assay (modified propidium iodide), LXF 629L; assay type: cell-based, human; conditions: Lung, 4 days of treatment
# Excerpt: as §1, §2, §3
# [6] = tested on: H 460; experiment: Monolayer assay (modified propidium iodide), H 460; assay type: cell-based, human; conditions: H 460, Lung, 4 days of treatment
# Excerpt: as §1, §2, §3
# [7] = tested on: MAXF 401NL; experiment: Monolayer assay (modified propidium iodide), MAXF 401NL; assay type: cell-based, human; conditions: Mammary, 4 days of treatment
# Excerpt: as §1, §2, §3
# [8] = tested on: MEXF 1341L; experiment: Monolayer assay (modified propidium iodide), MEXF 1341L; assay type: cell-based, human; conditions: Melanoma, 4 days of treatment
# Excerpt: as §1, §2, §3
# [9] = tested on: MEXF 462NL; experiment: Monolayer assay (modified propidium iodide), MEXF 462NL; assay type: cell-based, human; conditions: Melanoma, 4 days of treatment
# Excerpt: as §1, §2, §3
# [10] = tested on: PAXF 1657L; experiment: Monolayer assay (modified propidium iodide), PAXF 1657L; assay type: cell-based, human; conditions: Pancreas, 4 days of treatment
# Excerpt: as §1, §2, §3
# [11] = tested on: LNCAP; experiment: Monolayer assay (modified propidium iodide), LNCAP; assay type: cell-based, human; conditions: Prostate, 4 days of treatment
# Excerpt: as §1, §2, §3
# [12] = tested on: PXF 698L; experiment: Monolayer assay (modified propidium iodide), PXF 698L; assay type: cell-based, human; conditions: Pleuramesothelioma, 4 days of treatment
# Excerpt: as §1, §2, §3
# [13] = tested on: RXF 1781L; experiment: Monolayer assay (modified propidium iodide), RXF 1781L; assay type: cell-based, human; conditions: Renal, 4 days of treatment
# Excerpt: as §1, §2, §3
# [14] = tested on: RXF 393NL; experiment: Monolayer assay (modified propidium iodide), RXF 393NL; assay type: cell-based, human; conditions: Renal, 4 days of treatment
# Excerpt: as §1, §2, §3
# [15] = tested on: RXF 486L; experiment: Monolayer assay (modified propidium iodide), RXF 486L; assay type: cell-based, human; conditions: Renal, 4 days of treatment
# Excerpt: as §1, §2, §3
# [16] = tested on: TE671; experiment: Monolayer assay (modified propidium iodide), TE671; assay type: cell-based, human; conditions: TE671, Sarcoma, 4 days of treatment
# Excerpt: as §1, §2, §3
# [17] = tested on: panel of 40 human tumor cell lines; experiment: Monolayer assay, panel of 40 human tumor cell lines; assay type: cell-based
# Excerpt: Oncotest GmbH, Germany's proprietary tumor cell line panel comprises 40 cell lines. These cell lines were derived from 15 different tumor histotypes, each represented by 1 to 6 different cell lines. Cell lines were established from cancer of the bladder (3), colon (4), head and neck (1), lung (6), breast (3), pancreas (3), prostate (4), ovary (2), kidney (3), liver (1), stomach (1) and the uteri body (1), as well as from melanoma (3), sarcoma (2) and pleuramesothelioma (3). Out of these 40 cell lines, 24 cell lines were established at Oncotest, from patient-derived tumor xenografts. The other 16 cell lines were either provided by the NCI (Bethesda; MD, USA) or were purchased from ATCC (Rockville, Md., USA) or DSMZ (Braunschweig, Germany).
# Cell lines were routinely passaged once or twice weekly and maintained in culture for upto 20 passages. All cells were grown at 37° C. in a humidified atmosphere with 5% CO2 in RPMI 1640 medium supplemented with 10% (v/v) fetal calf serum (FCS) and 0.1 mg/mL gentamicin (medium and all other components from PAA, Cölbe, Germany). Authenticity of all cell lines was proven at the DSMZ by STR (short tandem repeat) analysis, a PCR based DNA-fingerprinting methodology.
# Stock solutions of the test compounds (330 μg/mL in DMSO) were prepared and stored in small aliquots (200 μL) at −20° C. An aliquot of the stock solution was thawed on the day of use and stored at room temperature prior to and during dosing. The subsequent dilutions were done with complete RPMI 1640 cell culture medium as follows: the stock solution was diluted 1:22 followed by serial dilutions finally resulting in a (compared to the test concentration) 15-fold higher concentration. For the final dilution step (1:15), 10 μL/well of the respective compound solution was directly added to 140 μL/well culture medium. Test compounds were tested at […]. Each concentration was evaluated in triplicate.
# A modified propidium iodide assay was used to assess the effect of the test compounds on the growth of the human tumor cell lines and was designed as in reference, Anti-cancer Drugs, 6, 522-532, (1995), the disclosure of which is incorporated by reference for the teaching of the assay.
# Cells were plated in 96-well flat-bottom microtiter plates at a cell density of 4,000 to 10,000 cells/well. After a 24 h recovery period to allow the cells to resume exponential growth, the test compounds were applied at five concentrations in log increments in triplicates in two independent runs. After 4 days of treatment, the medium with/without test compounds including all floating (i.e., dead) cells was aspirated and replaced by 200 μL of an aqueous propidium iodide (PI) solution (7 μg/mL). To measure the viable cell number, the remaining adherent cells were killed and permeabilized by repeated freezing and thawing and PI fluorescence was measured using the Cytofluor 4000 microplate reader (excitation λ=530 nm, emission λ=620 nm), which was a measure for the number of cells which survived treatment. Pharmacological effects on cell proliferation and survival were expressed as Test/Control×100 (% T/C) values, with T and C representing the fluorescence read-outs for wells with and without test compound, respectively, i.e. T/C represents the ratio of viable cell numbers following incubation of cell line with/without test compound. Based on the T/C values IC50 and IC70 values, being the drug concentration necessary to inhibit cell growth by 50% (T/C=50%) and 70% (T/C=30%), respectively, were determined by plotting compound concentration versus cell viability (T/C). IC-values were calculated based on the principle of linear two-point curve fit. […]
structure (smiles),measurement,setting,value
"C/C=C/C(O)C(C)/C=C/C(=N\O)C(C)C(O)C(C)C1OC(=O)/C(OC)=C/C(C)=C/C(C)C(O)C(CC)C(O)C(C)C/C(C)=C/C=C/C1OC (stereo not drawn) [Example 7, (3Z,5E,13E,15E)-18-((5Z,6E,10E)-3,9-Dihydroxy-5-(hydroxymino)-4,8-dimethyldodeca-6,10-dien-2-yl)-9-ethyl-8,10-dihydroxy-3,17-dimethoxy-5,7,11,13-tetramethyl oxacyclooctadeca-3,5,13,15-tetraen-2-one]",IC70,[1],46.0 ng/mL
same,IC50,"[1]; Homo sapiens, 96 h",4 ng/mL
same,IC70,[2],0.9 ng/mL
same,IC50,"[2]; Homo sapiens, 96 h",0.4 ng/mL
same,IC70,[3],0.6 ng/mL
same,IC50,"[3]; Homo sapiens, 96 h",0.2 ng/mL
same,IC50,"[4]; Homo sapiens, 96 h",6 ng/mL
same,IC70,[4],68.0 ng/mL
same,IC50,"[5]; Homo sapiens, 96 h",0.1 ng/mL
same,IC70,[5],1.0 ng/mL
same,IC70,[6],2.0 ng/mL
same,IC50,"[6]; Homo sapiens, NCI-H460, 96 h",0.7 ng/mL
same,IC50,"[7]; Homo sapiens, 96 h",3 ng/mL
same,IC70,[7],8.0 ng/mL
same,IC50,"[8]; Homo sapiens, 96 h",0.2 ng/mL
same,IC70,[8],2.0 ng/mL
same,IC50,"[9]; Homo sapiens, 96 h",3 ng/mL
same,IC70,[9],6.0 ng/mL
same,IC50,"[10]; Homo sapiens, 96 h",8 ng/mL
same,IC70,[10],>1000 ng/mL
same,IC50,"[11]; Homo sapiens, 96 h",3 ng/mL
same,IC70,[11],15.0 ng/mL
same,IC50,"[12]; Homo sapiens, 96 h",0.4 ng/mL
same,IC70,[12],2.0 ng/mL
same,IC50,"[13]; Homo sapiens, 96 h",7 ng/mL
same,IC70,[13],28.0 ng/mL
same,IC50,"[14]; Homo sapiens, 96 h",7 ng/mL
same,IC70,[14],1000 ng/mL
same,IC50,"[15]; Homo sapiens, 96 h",16 ng/mL
same,IC70,[15],39.0 ng/mL
same,IC50,"[16]; Homo sapiens, TE-671, 96 h",2 ng/mL
same,IC70,[16],5.0 ng/mL
same,activity in all cell lines as tested,[17]; 40 cell lines,concentration-dependent activity
same,tumor selectivity,[17]; 40 cell lines,remarkable level of tumor selectivity
same,Tumor selectivity: number of cell lines among the histotype with individual IC70 <mean IC70,[17]; Bladder,2 out of 3 and 2/3
same,Tumor selectivity: number of cell lines among the histotype with individual IC70 <mean IC70,[17]; Breast (mammary),2/3 and 3/3
same,Tumor selectivity: number of cell lines among the histotype with individual IC70 <mean IC70,[17]; Colon,4/4
same,IC50,"[17]; Homo sapiens, all 40 cell lines, read-out: IC50",< 1000 ng/mL
same,Tumor selectivity: number of cell lines among the histotype with individual IC70 <mean IC70,[17]; Lung,5/6
same,Tumor selectivity: number of cell lines among the histotype with individual IC70 <mean IC70,[17]; Melanoma,2/3
same,Tumor selectivity: number of cell lines among the histotype with individual IC70 <mean IC70,[17]; Pleurameso,1/3
same,Tumor selectivity: number of cell lines among the histotype with individual IC70 <mean IC70,[17]; Prostate,2/4
same,IC70,[17]; all 4 colon cancer cell lines,≤ 5 ng/mL
same,Mean IC70,[17]; mean over panel of 40 human tumor cell lines,9.1 ng/mL
same,IC50,"[17]; mean over panel of 40 human tumor cell lines, read-out: Mean IC50",1.1 ng/mL
